According to US10576062B2, “Carbamoyloxymethyl triazole cyclohexyl acids as LPA antagonists” (Bristol-Myers Squibb Company, priority 2016, dated 2020):

target: T1, human LPA1 (Homo sapiens, UniProt Q92633); test: LPA1 functional antagonist assay (LPA-induced calcium flux); type: cell-based; settings: CHO cells overexpressing human LPA1; inhibition of calcium flux induced by 10 nM LPA; read-out: hLPA1 IC50
T1 construct: expressed in transfected cells; host or cells: Chinese hamster ovary (CHO) cells
T1 sequence (Q92633 whole entry): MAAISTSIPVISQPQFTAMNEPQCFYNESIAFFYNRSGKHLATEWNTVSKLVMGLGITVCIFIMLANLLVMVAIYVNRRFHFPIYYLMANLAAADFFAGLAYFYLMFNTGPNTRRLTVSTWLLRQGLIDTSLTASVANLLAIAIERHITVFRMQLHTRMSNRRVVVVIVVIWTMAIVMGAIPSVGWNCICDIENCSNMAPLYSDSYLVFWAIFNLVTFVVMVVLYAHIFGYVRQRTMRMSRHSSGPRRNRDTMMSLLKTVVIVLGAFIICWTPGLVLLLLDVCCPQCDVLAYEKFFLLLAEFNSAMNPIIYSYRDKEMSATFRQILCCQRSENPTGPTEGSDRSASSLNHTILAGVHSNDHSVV
In short: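 CHO cells overexpressing human LPA1, loaded with calcium dye 30 min at 37° C, were preincubated 20 min at room temperature with compound (0.08 nM–5 μM, 0.5% DMSO) in HBSS/20 mM HEPES/0.1% fatty acid-free BSA.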

Row | IC50 [nM] | SMILES
1 | 68 | CN(CC1CCC1)C(=O)OCc1c(-c2ccc(O[C@H]3CCC[C@H](C(=O)O)C3)c(CO)n2)nnn1C [Example 265, (1S,3 S)-3-((6-(5-((((cyclobutylmethyl)(methyl)carbamoyl)oxy)methyl)-1-methyl-1H-1,2,3-triazol-4-yl)-2-(hydroxymethyl)pyridin-3-yl)oxy)cyclohexane-1-carboxylic Acid]
2 | 22 | CCCCN(C)C(=O)OCc1c(-c2ccc(O[C@H]3CCC[C@H](C(=O)O)C3)c(C(F)F)n2)nnn1C [Example 278, (1S,3S)-3-((6-(5-(((butyl(methyl)carbamoyl)oxy)methyl)-1-methyl-1H-1,2,3-triazol-4-yl)-2-(difluoromethyl)pyridin-3-yl)oxy)cyclohexane-1-carboxylic acid]
3 | 95 | Cc1nc(-c2nnn(C)c2COC(=O)N(C)CC2CCC2)ccc1O[C@H]1CCC[C@](F)(C(=O)O)C1 (single isomer, unassigned) [Example 13, 3-((6-(5-((((cyclobutylmethyl)(methyl)carbamoyl)oxy)methyl)-1-methyl-1H-1,2,3-triazol-4-yl)-2-methylpyridin-3-yl)oxy)-1-fluorocyclohexane-1-carboxylic Acid]
4 | 134 | Cc1nc(-c2nnn(C)c2COC(=O)N(C)CC(C)(F)F)ccc1O[C@H]1CCC[C@H](C(=O)O)C1 [Example 259, (1S,3 S)-3-((6-(5-((((2,2-difluoropropyl)(methyl)carbamoyl)oxy)methyl)-1-methyl-1H-1,2,3-triazol-4-yl)-2-methylpyridin-3-yl)oxy)cyclohexane-1-carboxylic Acid]
5 | 225 | CN(CC1CCC1)C(=O)OCc1c(-c2ccc(O[C@H]3CCC[C@H](C(=O)O)C3)c(C(C)(C)O)n2)nnn1C [Example 271, (1S,3 S)-3-((6-(5-((((cyclobutylmethyl)(methyl)carbamoyl)oxy)methyl)-1-methyl-1H-1,2,3-triazol-4-yl)-2-(2-hydroxypropan-2-yl)pyridin-3-yl)oxy)cyclohexane-1-carboxylic Acid]
6 | 174 | CN(C(=O)OCc1c(-c2cnc(O[C@H]3CCC[C@H](C(=O)O)C3)c(C(F)(F)F)c2)nnn1C)C1CCCC1 [Example 238, (1S,3S)-3-((5-(5-(((cyclopentyl(methyl)carbamoyl)oxy)methyl)-1-methyl-1H-1,2,3-triazol-4-yl)-3-(trifluoromethyl)pyridin-2-yl)oxy)cyclohexane-1-carboxylic acid]
7 | 11 | CCCN(C)C(=O)OCc1c(-c2ccc(O[C@H]3CCC[C@H](C(=O)O)C3)c(C#N)n2)nnn1C [Example 270, (1S,3S)-3-((2-cyano-6-(1-methyl-5-(((methyl(propyl)carbamoyl)oxy)methyl)-1H-1,2,3-triazol-4-yl)pyridin-3-yl)oxy)cyclohexane-1-carboxylic acid]
8 | 19 | Cc1nc(-c2nnn(C)c2COC(=O)N(C)C[C@H]2C[C@@H]2C)ccc1O[C@H]1CCCC(C(=O)O)C1 (stereo in doubt) [Example 258, (1R,3 S)-3-((2-methyl-6-(1-methyl-5-(((methyl(((1S,2S)-2-methylcyclopropyl)methyl)carbamoyl)oxy)methyl)-1H-1,2,3-triazol-4-yl)pyridin-3-yl)oxy)cyclohexane-1-carboxylic Acid]
9 | 1210 | CN(C(=O)OCc1c(-c2cnc(O[C@H]3CCC[C@H](C(=O)O)C3)c(C(F)(F)F)c2)nnn1C)C1CCC1 [Example 240, (1S,3S)-3-((5-(5-(((cyclobutyl(methyl)carbamoyl)oxy)methyl)-1-methyl-1H-1,2,3-triazol-4-yl)-3-(trifluoromethyl)pyridin-2-yl)oxy)cyclohexane-1-carboxylic acid]

same assay, conditions: human LPA1; read-out: hLPA1 IC50

Row | IC50 [nM] | SMILES
10 | 50 | Cc1nc(-c2nnn(C)c2COC(=O)N(C)CCC(C)(C)F)ccc1O[C@H]1CCC[C@H](C(=O)O)C1 [Example 187, (1S,3S)-3-((6-(5-((((3-fluoro-3-methylbutyl)(methyl)carbamoyl)oxy)methyl)-1-methyl-1H-1,2,3-triazol-4-yl)-2-methylpyridin-3-yl)oxy)cyclohexane-1-carboxylic acid]
11 | 34 | Cc1nc(-c2nnn(C)c2COC(=O)N(C)CCC2CC2)ccc1O[C@H]1CCC[C@H](C(=O)O)C1 [Example 162, (1S,3S)-3-((6-(5-((((2-cyclopropylethyl)(methyl)carbamoyl)oxy)methyl)-1-methyl-1H-1,2,3-triazol-4-yl)-2-methylpyridin-3-yl)oxy)cyclohexane-1-carboxylic acid]
12 | 86 | CN(CC1CC1(C)C)C(=O)OCc1c(-c2ccc(O[C@H]3CCC[C@H](C(=O)O)C3)cn2)nnn1C (mixture of isomers) [Example 185, (1S,3S)-3-((6-(5-(((((2,2-dimethylcyclopropyl)methyl)(methyl)carbamoyl)oxy)methyl)-1-methyl-1H-1,2,3-triazol-4-yl)pyridin-3-yl)oxy)cyclohexane-1-carboxylic acid]

same assay, conditions: read-out: hLPA1 IC50

Row | IC50 [nM] | SMILES
13 | 14 | Cc1cc(-c2nnn(C)c2COC(=O)N(C)C2CCCC2)ccc1O[C@H]1CCC[C@H](C(=O)O)C1 [Example 41, (1S,3S)-3-(4-(5-(((cyclopentyl(methyl)carbamoyl)oxy)methyl)-1-methyl-1H-1,2,3-triazol-4-yl)-2-methylphenoxy)cyclohexane-1-carboxylic acid]
14 | 70 | Cc1nc(-c2nnn(C)c2COC(=O)N(C)C2(C)CC(C)C2)ccc1O[C@H]1CCC[C@H](C(=O)O)C1 (single isomer, unassigned) [Example 107]
15 | 28 | [2H]C([2H])([2H])n1nnc(-c2ccc(O[C@H]3CCC[C@H](C(=O)O)C3)cn2)c1COC(=O)N(C)CC1CCC1 [Example 82, (1S,3S)-3-((6-(5-((((cyclobutylmethyl)(methyl)carbamoyl)oxy)methyl)-1-(methyl-d3)-1H-1,2,3-triazol-4-yl)pyridin-3-yl)oxy)cyclohexane-1-carboxylic acid]
16 | 6 | CN(C(=O)OCc1c(-c2ccc(O[C@H]3CCC[C@H](C(=O)O)C3)c(F)c2)nnn1C)C1CCCC1 [Example 44, (1S,3S)-3-(4-(5-(((cyclopentyl(methyl)carbamoyl)oxy)methyl)-1-methyl-1H-1,2,3-triazol-4-yl)-2-fluorophenoxy)cyclohexane-1-carboxylic acid]
17 | 108 | Cc1nc(-c2nnn(C)c2COC(=O)NCC2CCC2)ccc1O[C@H]1CCC[C@H](C(=O)O)C1 [Example 108, (1S,3S)-3-((6-(5-((((cyclobutylmethyl)carbamoyl)oxy)methyl)-1-methyl-1H-1,2,3-triazol-4-yl)-2-methylpyridin-3-yl)oxy)cyclohexane-1-carboxylic acid]
18 | 45 | CN(C(=O)OCc1c(-c2ccc(O[C@H]3CCC[C@H](C(=O)O)C3)cn2)nnn1C)C1(C)CC1 [Example 79, (1S,3S)-3-((6-(1-methyl-5-(((methyl(1-methylcyclopropyl)carbamoyl)oxy)methyl)-1H-1,2,3-triazol-4-yl)pyridin-3-yl)oxy)cyclohexane-1-carboxylic acid]
19 | 36 | Cc1nc(-c2nnn(C)c2COC(=O)N(C)C2CCC2)ccc1O[C@H]1CCC[C@H](C(=O)O)C1 [Example 136, (1S,3S)-3-((6-(5-(((cyclobutyl(methyl)carbamoyl)oxy)methyl)-1-methyl-1H-1,2,3-triazol-4-yl)-2-methylpyridin-3-yl)oxy)cyclohexane-1-carboxylic acid]
20 | 101 | Cc1nc(-c2nnn(C)c2COC(=O)N2CCC(CC(C)C)C2)ccc1O[C@H]1CCC[C@H](C(=O)O)C1 (mixture of isomers) [Example 151, (1S,3S)-3-((6-(5-(((3-isobutylpyrrolidine-1-carbonyl)oxy)methyl)-1-methyl-1H-1,2,3-triazol-4-yl)-2-methylpyridin-3-yl)oxy)cyclohexane-1-carboxylic acid]
21 | 982 | Cc1nc(-c2nnn(C)c2COC(=O)N(C)Cc2ccnn2C)ccc1O[C@H]1CCC[C@H](C(=O)O)C1 [Example 124, (1S,3S)-3-((2-methyl-6-(1-methyl-5-(((methyl((1-methyl-1H-pyrazol-5-yl)methyl)carbamoyl)oxy)methyl)-1H-1,2,3-triazol-4-yl)pyridin-3-yl)oxy)cyclohexane-1-carboxylic acid]
22 | 28 | CCCCN(C)C(=O)OCc1c(-c2ccc(O[C@H]3CCC[C@H](C(=O)O)C3)c(C)c2)nnn1C [Example 40, (1S,3S)-3-(4-(5-(((butyl(methyl)carbamoyl)oxy)methyl)-1-methyl-1H-1,2,3-triazol-4-yl)-2-methylphenoxy)cyclohexane-1-carboxylic acid]
23 | 1880 | CCCN(C)C(=O)OCc1c(-c2ccc(O[C@H]3CCC[C@H](C(=O)O)C3)cc2)nnn1C (racemic) [Example 59, (rac)-trans-3-(4-(1-methyl-5-(((methyl(propyl)carbamoyl)oxy)methyl)-1H-1,2,3-triazol-4-yl)phenoxy)cyclohexane-1-carboxylic acid]
24 | 36 | CCCC1(N(C)C(=O)OCc2c(-c3ccc(O[C@H]4CCC[C@H](C(=O)O)C4)c(C)n3)nnn2C)CC1 [Example 87, (1S,3S)-3-((2-methyl-6-(1-methyl-5-(((methyl(1-propylcyclopropyl)carbamoyl)oxy)methyl)-1H-1,2,3-triazol-4-yl)pyridin-3-yl)oxy)cyclohexane-1-carboxylic acid]
25 | 47 | CCCC(C)N(C)C(=O)OCc1c(-c2ccc(O[C@H]3CCC[C@H](C(=O)O)C3)cn2)nnn1C (mixture of isomers) [Example 24, (1S,3S)-3-((6-(1-methyl-5-(((methyl(pentan-2-yl)carbamoyl)oxy)methyl)-1H-1,2,3-triazol-4-yl)pyridin-3-yl)oxy)cyclohexane-1-carboxylic acid]
26 | 180 | CCCC1(N(C)C(=O)OCc2c(-c3ccc(O[C@H]4CCC[C@H](C(=O)O)C4)c(C)n3)nnn2C)CCC1 [Example 132, (1S,3S)-3-((2-methyl-6-(1-methyl-5-(((methyl(1-propylcyclobutyl)carbamoyl)oxy)methyl)-1H-1,2,3-triazol-4-yl)pyridin-3-yl)oxy)cyclohexane-1-carboxylic acid]
